Columns and labels:
PfA-M1 = molecular target: T1, PfA-M1 (Plasmodium falciparum, UniProt O96935); experiment: Dose-response aminopeptidase assay, Ki via Dixon plots, PfA-M1; assay type: biochemical; conditions: Dixon plot; substrate 20 and 40 μM
T1 construct: made in house; host or cells: Escherichia coli
T1 sequence (O96935 1-1085): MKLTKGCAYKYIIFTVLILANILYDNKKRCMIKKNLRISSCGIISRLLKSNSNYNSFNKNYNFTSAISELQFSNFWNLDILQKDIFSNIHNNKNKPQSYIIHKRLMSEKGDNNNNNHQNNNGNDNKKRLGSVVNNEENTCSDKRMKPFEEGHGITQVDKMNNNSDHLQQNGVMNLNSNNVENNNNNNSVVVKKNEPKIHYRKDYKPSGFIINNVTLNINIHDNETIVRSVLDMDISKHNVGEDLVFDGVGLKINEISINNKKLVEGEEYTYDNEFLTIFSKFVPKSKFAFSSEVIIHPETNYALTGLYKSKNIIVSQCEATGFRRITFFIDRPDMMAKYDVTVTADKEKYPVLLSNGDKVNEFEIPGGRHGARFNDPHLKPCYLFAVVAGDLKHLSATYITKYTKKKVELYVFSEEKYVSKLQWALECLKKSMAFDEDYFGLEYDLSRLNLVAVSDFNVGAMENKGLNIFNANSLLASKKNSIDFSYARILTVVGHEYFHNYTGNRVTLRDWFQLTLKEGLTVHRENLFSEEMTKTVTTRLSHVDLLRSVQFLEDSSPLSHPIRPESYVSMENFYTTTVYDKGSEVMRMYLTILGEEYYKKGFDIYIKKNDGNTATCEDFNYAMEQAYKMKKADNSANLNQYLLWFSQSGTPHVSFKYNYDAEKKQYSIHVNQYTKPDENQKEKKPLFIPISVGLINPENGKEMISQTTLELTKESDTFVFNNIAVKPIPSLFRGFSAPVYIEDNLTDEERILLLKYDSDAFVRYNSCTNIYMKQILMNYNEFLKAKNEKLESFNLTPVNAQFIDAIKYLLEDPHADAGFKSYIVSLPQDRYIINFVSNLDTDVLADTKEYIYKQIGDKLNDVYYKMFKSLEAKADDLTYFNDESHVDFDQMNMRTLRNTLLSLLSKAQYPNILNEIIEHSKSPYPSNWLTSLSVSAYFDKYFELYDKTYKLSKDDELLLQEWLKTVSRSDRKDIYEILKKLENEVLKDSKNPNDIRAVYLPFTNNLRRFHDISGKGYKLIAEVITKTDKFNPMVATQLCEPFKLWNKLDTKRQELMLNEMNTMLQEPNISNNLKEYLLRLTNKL
Description: (§1) The expression and purification of PfA-M1 and PfA-M17 in Escherichia coli employed a two-step purification process of Ni-NTA-agarose column, followed by size exclusion chromatography on a Superdex 200 16/60 using an AKTAxpress high throughput chromatography system (http://proteinexpress.med.monash.edu.au/index.htm), as previously described. Compounds were purchased from Ambinter (France). Purity (90% or higher) of these compounds was confirmed by vendors. Aminopeptidase activity and K i values for both enzymes were determined as already described.
(§2) The top 12 hits identified in the virtual screen were evaluated for their ability to inhibit both PfA-M1 and PfA-M17 in vitro. We initially tested the total aminopeptidase activity (as reported by the fluorigenic substrate L-leucyl-7-amido-4-methylcoumarin) in the presence of 1 mM compound (Fig 3). In this screen, the “no compound” control was considered 100% activity and bestatin was included as an indicator/control for inhibition. From the results obtained, only compounds 4 (ZINC ID: 25108749) and 12 (ZINC ID: 4090432) were able to inhibit the activity of the enzymes to > 50%. […] The two inhibitory compounds were further analyzed to identify their effects on the individual aminopeptidases. To do this, we performed dose-response assays for each inhibitor with each enzyme, and then determined a K i via Dixon plots (Fig 4). […] Compound 4 was a weaker inhibitor of both enzymes with K i’s in the micromolar range (K i = 30.0 μM for PfA-M1 and 0.7 μM for PfA-M17; Fig 4).
(§3) Fig 4 Dixon plots of 1/V (y axis) versus inhibitor concentration (x axis) for PfA-M1 (top panel) and PfA-M17 (bottom panel). For PfA-M1, substrate concentrations were 20 μM (blue) and 40 μM (red); inhibitor concentration in μM. For PfA-M17, substrate concentrations were 5 μM (magenta) and 10 μM (green); inhibitor concentration in μM or nM as indicated. The point of intersection (-K i) is indicated as a dotted line. (A) PfA-M1 and compound 4. (B) PfA-M1 and compound 12. (C) PfA-M17 and compound 4. (D) PfA-M17 and compound 12

PfA-M17 = molecular target: T2, PfA-M17 (Plasmodium falciparum, UniProt Q8IL11); experiment: Dose-response aminopeptidase assay, Ki via Dixon plots, PfA-M17; assay type: biochemical; conditions: Dixon plot; substrate 5 and 10 μM
T2 construct: made in house; host or cells: Escherichia coli
T2 sequence (Q8IL11 84-605 limits assumed): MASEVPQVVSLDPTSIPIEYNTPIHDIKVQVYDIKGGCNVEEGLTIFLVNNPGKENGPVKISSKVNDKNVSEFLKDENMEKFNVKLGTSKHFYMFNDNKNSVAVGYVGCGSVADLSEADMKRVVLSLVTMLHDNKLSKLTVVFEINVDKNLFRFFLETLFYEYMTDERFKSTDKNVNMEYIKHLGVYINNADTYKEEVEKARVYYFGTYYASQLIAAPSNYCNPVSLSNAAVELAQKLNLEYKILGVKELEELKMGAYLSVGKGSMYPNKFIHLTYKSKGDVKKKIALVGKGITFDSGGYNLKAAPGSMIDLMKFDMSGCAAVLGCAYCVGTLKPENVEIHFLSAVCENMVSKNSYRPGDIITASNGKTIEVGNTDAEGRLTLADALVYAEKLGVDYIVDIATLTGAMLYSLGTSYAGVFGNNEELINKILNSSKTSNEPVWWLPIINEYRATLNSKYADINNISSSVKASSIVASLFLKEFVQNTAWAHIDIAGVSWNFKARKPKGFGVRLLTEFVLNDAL
Description: as §1, §2, §3

[1] = test system: PfA-M1 and PfA-M17 (total aminopeptidase activity); experiment: Total aminopeptidase activity in the presence of 1 mM compound (fluorigenic substrate L-leucyl-7-amido-4-methylcoumarin); assay type: biochemical, Plasmodium falciparum; conditions: no compound control = 100% activity
Description: as §1
The top 12 hits identified in the virtual screen were evaluated for their ability to inhibit both PfA-M1 and PfA-M17 in vitro. We initially tested the total aminopeptidase activity (as reported by the fluorigenic substrate L-leucyl-7-amido-4-methylcoumarin) in the presence of 1 mM compound (Fig 3). In this screen, the “no compound” control was considered 100% activity and bestatin was included as an indicator/control for inhibition. From the results obtained, only compounds 4 (ZINC ID: 25108749) and 12 (ZINC ID: 4090432) were able to inhibit the activity of the enzymes to > 50%. […] The two inhibitory compounds were further analyzed to identify their effects on the individual aminopeptidases. To do this, we performed dose-response assays for each inhibitor with each enzyme, and then determined a K i via Dixon plots (Fig 4). […]

| Structure (SMILES) | Ki PfA-M1 (PfA-M1) | Ki PfA-M17 (PfA-M17) | Ki (PfA-M1) [nM] | inhibition of total aminopeptidase activity [1] [%] | Ki (PfA-M17) [nM] |
| --- | --- | --- | --- | --- | --- |
| CP(=O)(O)CCCCC(N)C(=O)O (stereo not shown) [Compound 1] | n.i. | n.i. |  |  |  |
| NCP(=O)(O)CC(CCCC(=O)O)C(=O)O (stereo not shown) [Compound 3] | n.i. | n.i. |  |  |  |
| CC(CP(=O)(O)C(N)c1ccccc1)C(=O)O (stereo not shown) [Compound 4, 3-{[amino(phenyl)methyl](hydroxy)phosphoryl}-methyl propanoic acid] |  |  | 30000 | 95 | 700 |
| O=C(O)C(Cc1ccco1)P(=O)(O)CN1CCCCC1 (stereo not shown) [Compound 6] | n.i. | n.i. |  |  |  |
| CCCN(CCC)CP(=O)(O)CCC(=O)O [Compound 7] | n.i. | n.i. |  |  |  |
| O=C(O)C(CC1CCCO1)P(=O)(O)CN1CCCC1=O (stereo not shown) [Compound 9] | n.i. | n.i. |  |  |  |

Further lines, results first:

| Ki PfA-M1 (PfA-M1) | Ki PfA-M17 (PfA-M17) | Ki (PfA-M1) [nM] | inhibition of total aminopeptidase activity [1] [%] | Ki (PfA-M17) [nM] | Structure (SMILES) |
| --- | --- | --- | --- | --- | --- |
| n.i. | n.i. |  |  |  | O=C(O)CCP(=O)(O)CN1CCCCC1 [Compound 8] |
| n.i. | n.i. |  |  |  | NC(=O)NC(CC(=O)O)C(=O)O (stereo not shown) [Compound 10] |
| n.i. | n.i. |  |  |  | CC(CC(N)C(=O)O)C(=O)O (stereo not shown) [Compound 11] |
|  |  | 2300 | 98 | 17 | CC(C)CC(CP(=O)(O)C(N)c1ccccc1)C(=O)O (stereo not shown) [Compound 12] |

From article PMC4583420, “Identification and Validation of a Potent Dual Inhibitor of the P. falciparum M1 and M17 Aminopeptidases Using Virtual Screening” (PLoS ONE, 2015)
